Source: the supplement of paper PMC10307832

How the values were obtained:
Assay in all cases: relative viability (nuclei count vs DMSO), 5 days (fraction); higher = more cells survive
VE-821 + Bortezomib = compound: CS(=O)(=O)c1ccc(-c2cnc(N)c(C(=O)Nc3ccccc3)n2)cc1 [VE-821] + CC(C)C[C@H](NC(=O)[C@H](Cc1ccccc1)NC(=O)c1cnccn1)B(O)O [Bortezomib] (partner 0.002 µM)
Outline: (§1)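 Medians of duplicate plates are given as relative viability. That measure is the nuclei count in treated wells divided by the count in vehicle wells. Counts were taken on 4× images of lung cancer cell lines in 1536-well plates, 5 days after pin-tool dosing the day after seeding with one drug alone or a fixed anchor-drug dose plus five library-drug doses (not always all listed) in √10 steps.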

VE-821 + Palbociclib = compound: CS(=O)(=O)c1ccc(-c2cnc(N)c(C(=O)Nc3ccccc3)n2)cc1 [VE-821] + CC(=O)c1c(C)c2cnc(Nc3ccc(N4CCNCC4)cn3)nc2n(C2CCCC2)c1=O [Palbociclib] (partner 0.5 µM)
Outline: as §1

Vismodegib + Linsitinib = compound: CS(=O)(=O)c1ccc(C(=O)Nc2ccc(Cl)c(-c3ccccn3)c2)c(Cl)c1 [Vismodegib] + C[C@]1(O)C[C@@H](c2nc(-c3ccc4ccc(-c5ccccc5)nc4c3)c3c(N)nccn32)C1 [Linsitinib] (partner 1 µM)
Outline: as §1

Ruxolitinib + OSI-027 = compound: N#CC[C@H](C1CCCC1)n1cc(-c2ncnc3[nH]ccc23)cn1 [Ruxolitinib] + COc1cccc2cc(-c3nc([C@H]4CC[C@H](C(=O)O)CC4)n4ncnc(N)c34)[nH]c12 [OSI-027] (partner 0.5 µM)
Outline: as §1

Cell Line | relative viability (VE-821 + Bortezomib; first compound 0.08 µM) | relative viability (VE-821 + Bortezomib; first compound 0.253 µM) | relative viability (VE-821 + Bortezomib; first compound 0.8 µM) | relative viability (VE-821 + Bortezomib; first compound 2.53 µM) | relative viability (VE-821 + Bortezomib; first compound 8 µM) | relative viability (VE-821 + Palbociclib; first compound 0.08 µM) | relative viability (VE-821 + Palbociclib; first compound 0.253 µM) | relative viability (VE-821 + Palbociclib; first compound 0.8 µM) | relative viability (VE-821 + Palbociclib; first compound 2.53 µM) | relative viability (VE-821 + Palbociclib; first compound 8 µM) | relative viability (Vismodegib + Linsitinib; first compound 0.8 µM) | relative viability (Vismodegib + Linsitinib; first compound 8 µM) | relative viability (Ruxolitinib + OSI-027; first compound 0.08 µM) | relative viability (Ruxolitinib + OSI-027; first compound 0.253 µM) | relative viability (Ruxolitinib + OSI-027; first compound 0.8 µM) | relative viability (Ruxolitinib + OSI-027; first compound 2.53 µM) | relative viability (Ruxolitinib + OSI-027; first compound 8 µM) | relative viability (Vismodegib + Linsitinib; first compound 0.08 µM) | relative viability (Vismodegib + Linsitinib; first compound 0.253 µM) | relative viability (Vismodegib + Linsitinib; first compound 2.53 µM)
LCLC-97TM1 | 0.633 | 0.634 | 0.726 | 0.541 | 0.568 | 0.257 | 0.238 | 0.25 | 0.267 | 0.255 | 0.174 | 0.211 | 0.502 | 0.3 | 0.362 | 0.488 | 0.563 | – | – | –
LCLC-103H | 1.12 | 0.938 | 1.01 | 1.06 | 1.09 | 0.552 | 0.513 | 0.524 | 0.523 | 0.448 | 0.988 | 1.04 | 0.497 | 0.394 | 0.48 | 0.45 | 0.488 | 0.938 | 1.05 | 1.05
LOU-NH91 | 0.529 | 0.906 | 0.527 | 0.555 | 0.377 | 0.543 | 0.512 | 0.545 | 0.548 | 0.565 | 0.916 | 0.961 | – | 0.733 | 0.729 | 0.746 | 0.686 | 0.926 | 0.972 | 0.951
LU99A | 1.11 | 1.23 | 1.16 | 1.08 | 0.514 | 0.426 | 0.456 | 0.434 | 0.408 | 0.267 | 0.508 | 0.621 | 0.339 | 0.305 | 0.298 | 0.295 | 0.268 | 0.521 | 0.507 | 0.464
LXF-289 | 1.04 | 1.07 | 1.1 | 1.08 | 1.11 | 0.583 | 0.606 | 0.716 | 0.677 | 0.712 | 0.98 | 0.919 | 0.776 | 0.79 | 0.789 | 0.698 | 0.624 | 0.959 | 0.929 | 0.976
NCI-H23 | 1 | 0.991 | 1.14 | 0.829 | 0.323 | 0.562 | 0.49 | 0.466 | 0.352 | 0.274 | 0.643 | 0.677 | 0.743 | 0.617 | 0.696 | 0.496 | 0.522 | 0.591 | 0.511 | 0.488
NCI-H322M | 1.24 | – | 1.33 | 1.25 | 1.08 | 0.446 | 0.462 | 0.463 | 0.483 | 0.443 | 0.975 | 0.924 | 0.506 | 0.538 | 0.704 | 0.594 | 0.63 | 0.771 | 1.01 | 0.958
NCI-H441 | 0.622 | 0.967 | 0.552 | 0.705 | 0.405 | 0.251 | 0.167 | 0.253 | 0.246 | 0.228 | 0.48 | 0.653 | 0.675 | 0.471 | 0.836 | 0.56 | 0.521 | 0.419 | 0.562 | 0.508
NCI-H460 | 1.51 | 1.05 | 0.977 | 0.823 | 0.248 | 0.203 | 0.166 | 0.159 | 0.0414 | 0.0344 | 0.773 | 1.08 | 0.686 | 0.575 | 0.721 | 0.583 | 0.615 | 0.732 | 0.74 | 0.733
NCI-H520 | 0.603 | 0.697 | – | 0.57 | 0.47 | 0.243 | 0.242 | 0.177 | 0.269 | 0.188 | 0.966 | 1.16 | 0.317 | – | 0.278 | 0.239 | 0.326 | 0.916 | 0.928 | 0.974
NCI-H647 | 1.39 | 0.825 | 0.804 | 1.08 | 0.569 | 0.385 | 0.297 | 0.349 | 0.371 | 0.15 | 1.19 | 1.34 | 0.73 | 0.706 | 0.797 | 0.531 | 0.595 | 1.16 | 1.21 | 0.911
NCI-H650 | 0.828 | 0.709 | 0.961 | 0.753 | 1.02 | 0.365 | 0.341 | 0.331 | 0.438 | 0.352 | 0.679 | 0.949 | – | 0.497 | 0.618 | 0.502 | 0.341 | 0.868 | 0.799 | 0.994
NCI-H661 | 0.885 | 0.953 | 0.767 | 0.895 | 0.72 | 0.409 | 0.453 | 0.415 | 0.4 | 0.413 | 0.575 | 0.579 | 0.752 | 0.664 | 0.834 | 0.664 | 0.666 | 0.5 | 0.497 | 0.522
NCI-H727 | 0.872 | 0.817 | 0.741 | 0.761 | 0.493 | 0.737 | 0.726 | 0.618 | 0.638 | 0.659 | 0.286 | 0.239 | 0.557 | 0.482 | 0.817 | 0.472 | 0.524 | 0.336 | 0.319 | 0.376
NCI-H838 | 0.912 | 0.855 | 0.485 | 1.22 | 0.652 | 0.222 | 0.186 | 0.218 | 0.266 | 0.191 | 0.992 | 1.02 | 0.39 | 0.318 | 0.386 | 0.266 | 0.267 | 0.869 | 0.967 | 0.99
NCI-H1355 | 1.26 | 1.15 | 1.09 | 1.27 | 0.718 | 0.455 | 0.349 | 0.287 | 0.366 | 0.361 | 0.798 | 0.856 | 0.382 | 0.328 | 0.388 | 0.373 | 0.318 | 0.844 | 0.724 | 0.808
NCI-H1437 | 0.504 | 0.523 | 0.46 | 0.592 | 0.4 | 0.305 | 0.262 | 0.36 | 0.335 | 0.284 | 1.03 | 0.892 | 0.965 | 0.758 | 0.926 | 0.752 | 0.78 | 0.855 | 0.977 | 0.95
